Laboratory results taken from article PMC7998760, “Solubility, Permeability, Anti-Inflammatory Action and In Vivo Pharmacokinetic Properties of Several Mechanochemically Obtained Pharmaceutical Solid Dispersions of Nimesulide” (Molecules, 2021).

Tests used:
[1] = Method: In this study, the stability constant and stoichiometry of the complex were calculated using Benesi-Hildebrant diagram (Equation (1)):Δδmax/Δδ − 1 = 1/[CD]^n × 1/K(1) where K is the stability constant of the complex, and Δδ is change of chemical shift.
Measurement of K values at different temperatures at 30–50 °C allows us to calculate the thermodynamic parameters of the HP-β-CD complex. From the dependence of R × lnK vs. 1/T using formulas (Equation (2)) and (Equation (3)), one can calculate the main thermodynamic parameters of complexation: the change in the Gibbs energy, enthalpy, and entropy:R × lnK = −ΔH^0/T + ΔS^0(2) ΔG^0 = ΔH^0 − TΔS^0(3)
^1H-NMR spectra were recorded on an Avance III 500 MHz spectrometer (Bruker, Rheinstetten, Germany) in D2O and CD3OD (99.8%, Sigma-Aldrich, Moscow, Russia) solutions as well as in their mixture. Spin-spin relaxation time T2 was measured by the Carr-Purcell-Meiboom-Gill (CPMG) pulse sequence.

[2] = system: histamine edema; experiment: Anti-inflammatory study, histamine edema model; assay type: in vivo, CD-1 mice; settings: oral single administration, doses 5, 10, 20 mg/kg of NIM, p < 0.05 compare to control
Method: (§1) CD-1 mice weighing 20–25 g were obtained from the vivarium of the Institute of Cytology and Genetic SB RAS. Animals were kept under standard conditions with free access to water and food with humidity and temperature-controlled rooms with light and dark 12 h cycles.
“Histamine swelling” was reproduced by introducing of 0.05 mL of 0.1% histamine solution under aponeurosis of the hind paw. The test compounds were administered by oral gavage 1 h before administration of inflammatory agent. The swelling degree was evaluated after 5 h by comparison the legs mass with inflammatory agent (m1) and without it (m2). The degree of inflammation (ID) for each mouse was calculated by the following formula (Equation (6)): (6) ID=m1−m2/m2×100%
The statistical analysis was performed using Mann–Whitney U test. Data shown as Mean ± SEM. p < 0.05 was considered to be statistically significant.

[3] = alcohol solution, 400 nm
[4] = Pharmacokinetic study after a single per os administration; assay type: in vivo, CD-1 mice
Method: as §1
Mice were randomized by weight and divided into groups and deprived of food for 12 h prior to the experiment. […] Complexes were dissolved in distilled water. […] Blood samples were withdrawn after decapitation at 5, 15, 30, 45, 60, 90 120, 180 and 300 min (n = 5 for each time point) after introduction. Then, all the blood samples were centrifuged for 15 min at 1640× g and the supernatant serum fraction was transferred to empty tubes and kept frozen at −20 °C prior to analysis. The preparation of a blood sample was carried out according to the method described by. Briefly, the mouse plasma sample (0.2 mL) was transferred into glass test tube. 3 mL mixture solvent of ethyl acetate and hexane (90:10%, v/v) was added to the tubes and was vortexed for 3 min. Following a centrifugation for 7 min, 1.5 mL of organic phase was removed to another tube and evaporated. The dry residue was reconstituted with 100 μL of acetonitrile, vortexed for 30 s and 20 μL of the mixture was injected into the chromatograph. However, in contrast with noted reference we use HPLC conditions as described in HPLC analyses of this section.

[5] = CD-1, mouse, serum, oral, 20 mg/kg
[6] = single per os, NIM dose 20 mg/kg, mice

stability constant of the complex with HP-β-CD, cycle A ([1]; 30 °C, 1:1 complex): 140 M⁻¹
stability constant of the complex with HP-β-CD, cycle B ([1]; 30 °C, 1:1 complex): 490 M⁻¹
TΔS^0 of complexation with HP-β-CD, cycle A ([1]; 303 K): -6.7 ± 0.3 kcal/mol
TΔS^0 of complexation with HP-β-CD, cycle B ([1]; 303 K): -8.2 ± 0.5 kcal/mol
ΔG^0 of complexation with HP-β-CD, cycle B ([1]; 303 K): -3.0 kcal/mol
ΔH^0 of complexation with HP-β-CD, cycle A ([1]; 303 K): -10.5 ± 0.5 kcal/mol
ΔH^0 of complexation with HP-β-CD, cycle B ([1]; 303 K): -12.2 ± 1.0 kcal/mol
stability constant of the chelate complex with magnesium ions [3]: 22,300 ± 7400 M^−1
Tmax [4, 5]: 0.572 h
half-life [4, 5]: 1.48 ± 0.347 h
AUC 0-inf_obs [4, 6]: 3978.88 ± 242.62 mkg/mL*min
Cmax [4, 6]: 38.43 ± 3.25 mkg/mL
SMILES: CS(=O)(=O)Nc1ccc([N+](=O)[O-])cc1Oc1ccccc1 [NIM, N-(4-nitro-2-phenoxyphenyl)methanesulfonamide]
dose of NIM with significant anti-inflammatory effect [2]: 20 mg/kg
